Values quoted from earlier work in patent US11786460B2, “Pharmaceutical dry powder composition for inhalation comprising a thyroid hormone” (priority 2018, dated 2023).

What was measured:
[1] = mainly in the jejunum and ileum
[2] = test system: Calu-3 cells; conditions: in vitro

- fraction absorbed after oral administration [1]: 60-80%
Compound: N[C@@H](Cc1cc(I)c(Oc2cc(I)c(O)c(I)c2)c(I)c1)C(=O)O [levothyroxine]
- absorption from the respiratory mucosa (permeability) [2]: can be absorbed effectively from the respiratory mucosa
